From US11820776B2, “Process for the preparation of Remimazolam and solid state forms of Remimazolam salts” (WATSON LABORATORIES INC., priority 2017, dated 2023)

What was measured:
Assay type in all cases: physicochemical
[1] = Solid state stability at 80% relative humidity in open Petri dish; conditions: 80% relative humidity (RH), room temperature (RT)
[2] = Solubility in various pH ranges; conditions: comparator not stated
[3] = Kinetic water solubility; conditions: comparator not stated
[4] = Bulk density; conditions: compared to Remimazolam besylate
[5] = Compressibility properties; conditions: compared to Remimazolam besylate; may indicate better flow properties

Row | Compound | period for which the crystalline form is stable [1] | solubility in various pH ranges [2] | kinetic water solubility [3] | bulk density [4] | compressibility properties [5]
1 | Br.COC(=O)CC[C@@H]1N=C(c2ccccn2)c2cc(Br)ccc2-n2c(C)cnc21 [Form 1 of Remimazolam Mono hydrobromide] | at least 24 hours | improved | improved | – | –
2 | CC1(C)C2CCC1(CS(=O)(=O)O)C(=O)C2.COC(=O)CC[C@@H]1N=C(c2ccccn2)c2cc(Br)ccc2-n2c(C)cnc21 [Form 2 of Remimazolam Camphor Sulfonate] | at least 24 hours | – | – | higher | improved
3 | COC(=O)CC[C@@H]1N=C(c2ccccn2)c2cc(Br)ccc2-n2c(C)cnc21.CS(=O)(=O)O [Form 2 of Remimazolam Methane Sulfonate] | at least 24 hours | improved | improved | – | –
